Laboratory results as given in ChEMBL document CHEMBL4138157, “Synthesis, antibacterial properties and 2D-QSAR studies of quinolone-triazole conjugates” (2018).
≈ marks a conversion by molar mass, not a printed value.

Columns and labels:
Streptococcus pyogenes = experiment: Antibacterial activity against Streptococcus pyogenes ATCC 19615 after 18 hrs by agar dilution method; format: functional; details: ATCC 19615, 18 h
Pseudomonas aeruginosa = experiment: Antibacterial activity against Pseudomonas aeruginosa ATCC 27853 after 18 hrs by agar dilution method; format: functional; details: ATCC 27853, 18 h
Salmonella typhi = experiment: Antibacterial activity against Salmonella typhi ATCC 19430 after 18 hrs by agar dilution method; format: functional, Salmonella enterica subsp. enterica serovar Typhi; details: Salmonella enterica, ATCC 19430, 18 h
Escherichia coli = experiment: Antibacterial activity against Escherichia coli ATCC 25922 after 18 hrs by agar dilution method; format: functional; details: ATCC 25922, 18 h

| Structure (SMILES) | MIC (Streptococcus pyogenes) | MIC (Pseudomonas aeruginosa) | MIC (Salmonella typhi) | MIC (Escherichia coli) |
| --- | --- | --- | --- | --- |
| C#CCN1CCN(c2ncc3c(=O)c(C(=O)O)cn(CC)c3n2)CC1 | 750 µM (≈ 256 µg/mL) | > 3000 µM | > 3000 µM | 750 µM (≈ 256 µg/mL) |
| O=C(O)c1cn(C2CC2)c2cc(N3CCN(Cc4cn([C@@H](Cc5ccccc5)C(=O)O)nn4)CC3)c(F)cc2c1=O | 2230 µM (≈ 1250 µg/mL) | 2230 µM (≈ 1250 µg/mL) | 2230 µM (≈ 1250 µg/mL) |  |
| O=C(O)c1cn(C2CC2)c2cc(N3CCN(Cc4cn(-c5ccccc5)nn4)CC3)c(F)cc2c1=O | 16.4 µM (≈ 8.01 µg/mL) | > 2100 µM | 0.2 µM (≈ 0.0977 µg/mL) | 0.2 µM (≈ 0.0977 µg/mL) |
| CCn1cc(C(=O)O)c(=O)c2cc(F)c(N3CCN(Cc4cn([C@@H](CC(C)C)C(=O)O)nn4)CC3)cc21 | 1210 µM (≈ 625 µg/mL) | 1210 µM (≈ 625 µg/mL) | 2430 µM (≈ 1250 µg/mL) |  |
| CCn1cc(C(=O)O)c(=O)c2cc(F)c(N3CCN(Cc4cn(-c5ccc([N+](=O)[O-])cc5)nn4)CC3)cc21 | 15.3 µM (≈ 7.98 µg/mL) | > 1960 µM | 0.2 µM (≈ 0.104 µg/mL) | 0.2 µM (≈ 0.104 µg/mL) |
| CCn1cc(C(=O)O)c(=O)c2cc(F)c(N3CCN(Cc4cn(CC(=O)N[C@@H](Cc5ccccc5)C(=O)O)nn4)CC3)cc21 | 1030 µM (≈ 625 µg/mL) | 2060 µM (≈ 1250 µg/mL) | 2060 µM (≈ 1250 µg/mL) |  |
| C#CCN1CCN(c2cc3c(cc2F)c(=O)c(C(=O)O)cn3CC)CC1 | 1430 µM (≈ 512 µg/mL) | > 2870 µM | 1430 µM (≈ 512 µg/mL) | > 2870 µM |
| CCn1cc(C(=O)O)c(=O)c2cnc(N3CCN(Cc4cn([C@@H](C)C(=O)O)nn4)CC3)nc21 | 1370 µM (≈ 625 µg/mL) | 1370 µM (≈ 625 µg/mL) | 2740 µM (≈ 1250 µg/mL) |  |
| CC(C)[C@@H](C(=O)O)n1cc(CN2CCN(c3cc4c(cc3F)c(=O)c(C(=O)O)cn4C3CC3)CC2)nn1 | 2440 µM (≈ 1250 µg/mL) | 2440 µM (≈ 1250 µg/mL) | 2440 µM (≈ 1250 µg/mL) |  |
| CCn1cc(C(=O)O)c(=O)c2cc(F)c(N3CCN(Cc4cn([C@H](C(=O)O)C(C)C)nn4)CC3)cc21 | 1250 µM (≈ 625 µg/mL) | 2500 µM (≈ 1250 µg/mL) | 2500 µM (≈ 1250 µg/mL) |  |
| CC(C)C[C@@H](C(=O)O)n1cc(CN2CCN(c3cc4c(cc3F)c(=O)c(C(=O)O)cn4C3CC3)CC2)nn1 | 2370 µM (≈ 1250 µg/mL) | 2370 µM (≈ 1250 µg/mL) | 2370 µM (≈ 1250 µg/mL) |  |
| CCn1cc(C(=O)O)c(=O)c2cnc(N3CCN(Cc4cn(-c5ccc([N+](=O)[O-])cc5)nn4)CC3)nc21 | 127 µM (≈ 64 µg/mL) | 1010 µM (≈ 512 µg/mL) | 0.2 µM (≈ 0.101 µg/mL) | 0.2 µM (≈ 0.101 µg/mL) |
| CCn1cc(C(=O)O)c(=O)c2cnc(N3CCN(Cc4cn(CC(=O)N[C@@H](Cc5ccccc5)C(=O)O)nn4)CC3)nc21 | 2120 µM (≈ 1250 µg/mL) | 2120 µM (≈ 1250 µg/mL) | 212 µM (≈ 125 µg/mL) |  |
| CCn1cc(C(=O)O)c(=O)c2cc(F)c(N3CCN(Cc4cn(-c5ccc(C)cc5)nn4)CC3)cc21 | 2 µM (≈ 0.981 µg/mL) | > 2090 µM | 32.6 µM (≈ 16 µg/mL) | 0.2 µM (≈ 0.0981 µg/mL) |
| CCn1cc(C(=O)O)c(=O)c2cnc(N3CCN(Cc4cn(-c5ccccc5)nn4)CC3)nc21 | 556 µM (≈ 256 µg/mL) | 1110 µM (≈ 512 µg/mL) | 0.3 µM (≈ 0.138 µg/mL) | 0.3 µM (≈ 0.138 µg/mL) |
| O=C(Cn1cc(CN2CCN(c3cc4c(cc3F)c(=O)c(C(=O)O)cn4C3CC3)CC2)nn1)N[C@@H](Cc1ccccc1)C(=O)O | 2020 µM (≈ 1250 µg/mL) | 2020 µM (≈ 1250 µg/mL) | 2020 µM (≈ 1250 µg/mL) |  |
| C[C@@H](C(=O)O)n1cc(CN2CCN(c3cc4c(cc3F)c(=O)c(C(=O)O)cn4C3CC3)CC2)nn1 | 2580 µM (≈ 1250 µg/mL) | 2580 µM (≈ 1250 µg/mL) | 2580 µM (≈ 1250 µg/mL) |  |
| C#CCN1CCN(c2cc3c(cc2F)c(=O)c(C(=O)O)cn3C2CC2)CC1 | > 2770 µM | > 2770 µM | 1390 µM (≈ 512 µg/mL) | > 2770 µM |
| O=C(O)c1cn(C2CC2)c2cc(N3CCNCC3)c(F)cc2c1=O [CIPROFLOXACIN] | 3770 µM (≈ 1250 µg/mL) | 14.5 µM (≈ 4.8 µg/mL) | 7.2 µM (≈ 2.39 µg/mL) |  |
| CCn1cc(C(=O)O)c(=O)c2cc(F)c(N3CCNCC3)cc21 [NORFLOXACIN] | 1960 µM (≈ 625 µg/mL) | 15 µM (≈ 4.79 µg/mL) | 7.5 µM (≈ 2.4 µg/mL) |  |
| CCn1cc(C(=O)O)c(=O)c2cnc(N3CCNCC3)nc21 [PIPEMIDIC ACID] | 2060 µM (≈ 625 µg/mL) | 64.3 µM (≈ 19.5 µg/mL) | 7.9 µM (≈ 2.4 µg/mL) |  |
